Reference: patent US9808003B2, “Herbicidally active 2-(substituted-phenyl)-cyclopentane-1,3-dione compounds and derivatives thereof” (Syngenta Limited, priority 2013, dated 2017)

Columns and labels:
Type in all cases: in vivo
Setaria viridis (SETVI) = assay: Test 1B glasshouse assay, post-emergence herbicidal activity against grassy weeds; settings: 14 DAA
In short: (§1)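 Post-emergence spray, 14-day-old plants, glasshouse 22/16 °C day/night, 16 h light, 65% humidity. Test herbicide typically 60, 90 or 120 g/ha; cloquintocet-mexyl safener 50 g/ha optional at 60, included at 90/120. Scored visually 14 DAA, 0–100% damage, 2 reps averaged.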

[1] = tested on: Alopecurus myosuroides (ALOMY); assay: as above; settings: 14 DAA
In short: as §1

[2] = tested on: Lolium multiflorum (LOLMU); assay: as above; settings: 14 DAA
In short: as §1

Avena fatua (AVEFA) [3] = assay: as above; settings: 14 DAA
In short: as §1

Poa annua (POAAN) = assay: as above; settings: 14 DAA
In short: as §1

[4] = tested on: Alopecurus myosuroides (ALOMY); assay: Test 1A glasshouse assay, post-emergence herbicidal activity; settings: Alopecurus myosuroides, 312 h, application rate 250 g/ha, 13 days after application, visual (100%=total damage; 0%=no damage), read-out: Post-emergence Herbicidal Activity (% Phytotoxicity) ALOMY
In short: (§2)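 Read-out is visual percent phytotoxicity 13 days post-spray, 100% meaning total plant damage and 0% none. Seedlings were treated after 8 days' glasshouse cultivation with an aqueous spray of active ingredient in acetone/water 50:50 plus 0.5% Tween 20.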

Lolium perenne (LOLPE) [5] = assay: as above; settings: Lolium perenne, 312 h, application rate 250 g/ha, 13 days after application, visual (100%=total damage; 0%=no damage), read-out: Post-emergence Herbicidal Activity (% Phytotoxicity) LOLPE
In short: as §2

Avena fatua (AVEFA) [6] = assay: as above; settings: Avena fatua, 312 h, application rate 250 g/ha, 13 days after application, visual (100%=total damage; 0%=no damage), read-out: Post-emergence Herbicidal Activity (% Phytotoxicity) AVEFA
In short: as §2

[7] = tested on: Echinochloa crus-galli (ECHCG); assay: as above; settings: Echinochloa crus-galli, 312 h, application rate 250 g/ha, 13 days after application, visual (100%=total damage; 0%=no damage), read-out: Post-emergence Herbicidal Activity (% Phytotoxicity) ECHCG
In short: as §2

Spring Wheat “Freya” = assay: Test 1B glasshouse assay, post-emergence herbicidal activity against cereal crops
[8] = tested on: Alopecurus myosuroides (ALOMY); assay: Test 1A glasshouse assay, pre-emergence herbicidal activity; settings: 312 h, 250 g/ha, 13 days after application, read-out: Pre-emergence herbicidal activity (% phytotoxicity) ALOMY
Description: (§3) Seeds of a variety of test species were sown in standard soil in pots. After cultivation for one day (pre-emergence) or after 8 days cultivation (post-emergence) under controlled conditions in a glasshouse (at 24/16° C., day/night; 14 hours light; 65% humidity), the plants were sprayed with an aqueous spray solution derived from the formulation of the technical active ingredient in acetone/water (50:50) solution containing 0.5% Tween 20 (polyoxyethelyene sorbitan monolaurate, CAS RN 9005-64-5). The test plants were then grown under controlled conditions in a glasshouse (at 24/16° C., day/night; 14 hours light; 65% humidity) and watered twice daily. 13 days after application of the test herbicide, for pre- and post-emergence, the test was evaluated visually for percentage phytotoxicity to the plant (where 100%=total damage to plant; 0%=no damage to plant).
(§4) Test plants: Lolium perenne (LOLPE), Alopecurus myosuroides (ALOMY), Echinochloa crus-galli (ECHCG), and Avena fatua (AVEFA); these are all grassy monocotyledonous weeds.

Lolium perenne (LOLPE) [9] = assay: as above; settings: 312 h, 250 g/ha, 13 days after application, read-out: Pre-emergence herbicidal activity (% phytotoxicity) LOLPE
Description: as §3, §4

Avena fatua (AVEFA) [10] = assay: as above; settings: 312 h, 250 g/ha, 13 days after application, read-out: Pre-emergence herbicidal activity (% phytotoxicity) AVEFA
Description: as §3, §4

[11] = tested on: Echinochloa crus-galli (ECHCG); assay: as above; settings: 312 h, 250 g/ha, 13 days after application, read-out: Pre-emergence herbicidal activity (% phytotoxicity) ECHCG
Description: as §3, §4

Winter Wheat “Hereward” = assay: Test 1B glasshouse assay, post-emergence herbicidal activity against cereal crops; settings: for Post-emergence herbicidal activity against cereal crops, percentage phytotoxicity, Winter Wheat “Hereward”: 14 DAA
In short: (§5)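 Technical compound in IF50 with acetone, diluted into 0.5% v/v Adigor, sprayed post-emergence on 14-day glasshouse plants (22/16 °C, 16 h light, 65% humidity), typically at 60, 90 or 120 g/ha, with or without 50 g/ha cloquintocet-mexyl safener. Phytotoxicity scored visually 14 DAA (0–100%), mean of two replicates.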

Winter Barley “Suzuka” = assay: as above; settings: for Post-emergence herbicidal activity against cereal crops, percentage phytotoxicity, Winter Barley “Suzuka”: 14 DAA
In short: as §5

[12] = tested on: Spring Barley “Harrington”; assay: as above; settings: for Post-emergence herbicidal activity against cereal crops, percentage phytotoxicity, Spring Barley “Harrington”: 14 DAA
In short: as §5

Spring Wheat “Teal” = assay: as above; settings: 14 DAA
In short: as §5

[13] = 30 g/ha herbicide, 50 g/ha cloquintocet-mexyl
[14] = 60 g/ha herbicide, 0 g/ha cloquintocet-mexyl
[15] = 60 g/ha herbicide, 50 g/ha cloquintocet-mexyl
[16] = herbicide 30 g/ha, cloquintocet-mexyl 50 g/ha
[17] = herbicide 60 g/ha, cloquintocet-mexyl 0 g/ha
[18] = herbicide 60 g/ha, cloquintocet-mexyl 50 g/ha

Question: How did the “Post-emergence herbicidal activity, percentage phytotoxicity, SETVI” value (Setaria viridis (SETVI); [13]) turn out when `Cc1cc(C)c(C2C(=O)CC(CCNC(=O)c3cc(Cl)ccn3)C2=O)c(C)c1` (racemic) [Compound A23] was run?
Answer: 95%

Question: And the “Post-emergence herbicidal activity, percentage phytotoxicity, SETVI” value (Setaria viridis (SETVI); [14])?
Answer: 99%

Question: And the “Post-emergence herbicidal activity, percentage phytotoxicity, SETVI” value (Setaria viridis (SETVI); [15])?
Answer: 99%

Question: What about the “Post-emergence herbicidal activity, percentage phytotoxicity, ALOMY” value [1, 13] of the same compound?
Answer: 28%

Question: What about the “Post-emergence herbicidal activity, percentage phytotoxicity, ALOMY” value [1, 14] of the same compound?
Answer: 75%

Question: And the “Post-emergence herbicidal activity, percentage phytotoxicity, ALOMY” value [1, 15]?
Answer: 78%

Question: And the “Post-emergence herbicidal activity, percentage phytotoxicity, LOLMU” value [2, 13]?
Answer: 48%

Question: What about the “Post-emergence herbicidal activity, percentage phytotoxicity, LOLMU” value [2, 14] of the same compound?
Answer: 90%

Question: What about the “Post-emergence herbicidal activity, percentage phytotoxicity, LOLMU” value [2, 15] of the same compound?
Answer: 83%

Question: And the “Post-emergence herbicidal activity, percentage phytotoxicity, AVEFA” value (Avena fatua (AVEFA) [3]; [13])?
Answer: 13%

Question: And the “Post-emergence herbicidal activity, percentage phytotoxicity, AVEFA” value (Avena fatua (AVEFA) [3]; [14])?
Answer: 80%

Question: What about the “Post-emergence herbicidal activity, percentage phytotoxicity, AVEFA” value (Avena fatua (AVEFA) [3]; [15]) of the same compound?
Answer: 70%

Question: And the “Post-emergence herbicidal activity, percentage phytotoxicity, POAAN” value (Poa annua (POAAN); [13])?
Answer: 0%

Question: And the “Post-emergence herbicidal activity, percentage phytotoxicity, POAAN” value (Poa annua (POAAN); [14])?
Answer: 0%

Question: And the “Post-emergence herbicidal activity, percentage phytotoxicity, POAAN” value (Poa annua (POAAN); [15])?
Answer: 0%

Question: And the pest or weed control at 250 g/ha [4]?
Answer: 90%

Question: And the pest or weed control at 250 g/ha (Lolium perenne (LOLPE) [5])?
Answer: 90%

Question: What about the pest or weed control at 250 g/ha (Avena fatua (AVEFA) [6]) of the same compound?
Answer: 90%

Question: And the pest or weed control at 250 g/ha [7]?
Answer: 100%

Question: And the “Percentage Phytotoxicity Spring Wheat “Freya”” value (Spring Wheat “Freya”; [16])?
Answer: 5%

Question: And the “Percentage Phytotoxicity Spring Wheat “Freya”” value (Spring Wheat “Freya”; [17])?
Answer: 63%

Question: What about the “Percentage Phytotoxicity Spring Wheat “Freya”” value (Spring Wheat “Freya”; [18]) of the same compound?
Answer: 7%

Question: And the inhibition at 250 g/ha [8]?
Answer: 90%

Question: And the inhibition at 250 g/ha (Lolium perenne (LOLPE) [9])?
Answer: 100%

Question: What about the inhibition at 250 g/ha (Avena fatua (AVEFA) [10]) of the same compound?
Answer: 80%

Question: And the inhibition at 250 g/ha [11]?
Answer: 100%

Question: And the “Percentage Phytotoxicity Winter Wheat “Hereward”” value (Winter Wheat “Hereward”; [16])?
Answer: 0%

Question: What about the “Percentage Phytotoxicity Winter Wheat “Hereward”” value (Winter Wheat “Hereward”; [17]) of the same compound?
Answer: 68%

Question: And the “Percentage Phytotoxicity Winter Wheat “Hereward”” value (Winter Wheat “Hereward”; [18])?
Answer: 0%

Question: What about the “Percentage Phytotoxicity Winter Barley “Suzuka”” value (Winter Barley “Suzuka”; [16]) of the same compound?
Answer: 0%

Question: And the “Percentage Phytotoxicity Winter Barley “Suzuka”” value (Winter Barley “Suzuka”; [17])?
Answer: 70%

Question: And the “Percentage Phytotoxicity Winter Barley “Suzuka”” value (Winter Barley “Suzuka”; [18])?
Answer: 15%

Question: And the “Percentage Phytotoxicity Spring Barley “Harrington”” value [12, 16]?
Answer: 1%

Question: What about the “Percentage Phytotoxicity Spring Barley “Harrington”” value [12, 17] of the same compound?
Answer: 75%

Question: What about the “Percentage Phytotoxicity Spring Barley “Harrington”” value [12, 18] of the same compound?
Answer: 5%

Question: Which results are given for `CCc1cc(-n2cc(Cl)cn2)cc(C)c1C1C(=O)CC(CCNC(=O)c2ccccn2)C1=O` (stereo not shown) [Compound A87, N-[2-[3-[4-(4-chloropyrazol-1-yl)-2-ethyl-6-methyl-phenyl]-2,4-dioxo-cyclopentyl]ethyl]pyridine-2-carboxamide]?
Answer: Post-emergence herbicidal activity, percentage phytotoxicity, SETVI (Setaria viridis (SETVI); [13]): 73%; Post-emergence herbicidal activity, percentage phytotoxicity, SETVI (Setaria viridis (SETVI); [14]): 93%; Post-emergence herbicidal activity, percentage phytotoxicity, SETVI (Setaria viridis (SETVI); [15]): 95%; Post-emergence herbicidal activity, percentage phytotoxicity, ALOMY [1, 13]: 70%; Post-emergence herbicidal activity, percentage phytotoxicity, ALOMY [1, 14]: 97%; Post-emergence herbicidal activity, percentage phytotoxicity, ALOMY [1, 15]: 95%; Post-emergence herbicidal activity, percentage phytotoxicity, LOLMU [2, 13]: 100%; Post-emergence herbicidal activity, percentage phytotoxicity, LOLMU [2, 14]: 100%; Post-emergence herbicidal activity, percentage phytotoxicity, LOLMU [2, 15]: 100%; Post-emergence herbicidal activity, percentage phytotoxicity, AVEFA (Avena fatua (AVEFA) [3]; [13]): 100%; Post-emergence herbicidal activity, percentage phytotoxicity, AVEFA (Avena fatua (AVEFA) [3]; [14]): 100%; Post-emergence herbicidal activity, percentage phytotoxicity, AVEFA (Avena fatua (AVEFA) [3]; [15]): 100%; Post-emergence herbicidal activity, percentage phytotoxicity, POAAN (Poa annua (POAAN); [13]): 75%; Post-emergence herbicidal activity, percentage phytotoxicity, POAAN (Poa annua (POAAN); [14]): 83%; Post-emergence herbicidal activity, percentage phytotoxicity, POAAN (Poa annua (POAAN); [15]): 83%; pest or weed control at 250 g/ha [4]: 100%; pest or weed control at 250 g/ha (Lolium perenne (LOLPE) [5]): 100%; pest or weed control at 250 g/ha (Avena fatua (AVEFA) [6]): 100%; pest or weed control at 250 g/ha [7]: 100%; inhibition at 250 g/ha [8]: 100%; inhibition at 250 g/ha (Lolium perenne (LOLPE) [9]): 100%; inhibition at 250 g/ha (Avena fatua (AVEFA) [10]): 90%; inhibition at 250 g/ha [11]: 100%; Post-emergence herbicidal activity against cereal crops, percentage phytotoxicity, Winter Wheat “Hereward” (Winter Wheat “Hereward”; [13]): 23%; Post-emergence herbicidal activity against cereal crops, percentage phytotoxicity, Winter Wheat “Hereward” (Winter Wheat “Hereward”; [14]): 43%; Post-emergence herbicidal activity against cereal crops, percentage phytotoxicity, Winter Wheat “Hereward” (Winter Wheat “Hereward”; [15]): 33%; Post-emergence herbicidal activity against cereal crops, percentage phytotoxicity, Spring Wheat “Teal” (Spring Wheat “Teal”; [13]): 18%; Post-emergence herbicidal activity against cereal crops, percentage phytotoxicity, Spring Wheat “Teal” (Spring Wheat “Teal”; [14]): 48%; Post-emergence herbicidal activity against cereal crops, percentage phytotoxicity, Spring Wheat “Teal” (Spring Wheat “Teal”; [15]): 38%; Post-emergence herbicidal activity against cereal crops, percentage phytotoxicity, Winter Barley “Suzuka” (Winter Barley “Suzuka”; [13]): 3%; Post-emergence herbicidal activity against cereal crops, percentage phytotoxicity, Winter Barley “Suzuka” (Winter Barley “Suzuka”; [14]): 83%; Post-emergence herbicidal activity against cereal crops, percentage phytotoxicity, Winter Barley “Suzuka” (Winter Barley “Suzuka”; [15]): 60%; Post-emergence herbicidal activity against cereal crops, percentage phytotoxicity, Spring Barley “Harrington” [12, 13]: 0%; Post-emergence herbicidal activity against cereal crops, percentage phytotoxicity, Spring Barley “Harrington” [12, 14]: 73%; Post-emergence herbicidal activity against cereal crops, percentage phytotoxicity, Spring Barley “Harrington” [12, 15]: 60%
